# In ChEMBL document CHEMBL5226321, “Ivermectin: A Promising Therapeutic for Fighting Malaria. Current Status and Perspective” (J Med Chem, 2021):
# Values joined by “and” are separate entries in the source; they are usually repeats but may differ in a detail not shown here. Equal values may be shown once.
# Tests used:
# Anopheles stephensi = assay: Insecticidal in Anopheles stephensi larvae measured after 48 hrs; type: functional
# Anopheles sp. [1] = assay: Insecticidal in Anopheles sp. assessed as mortality rate fed with blood of compound treated dog at 10 to 2500 microg/kg observed after 48 hrs relative to control; type: functional, organism-based; conditions: dose 10-2500 µg/kg
# Aedes aegypti = assay: Insecticidal in Aedes aegypti assessed as lethal concentration membrane-fed with compound treated blood; type: functional, organism-based
# Anopheles sp. [2] = assay: Insecticidal in Anopheles sp. assessed as lethal concentration membrane-fed with compound treated blood; type: functional, organism-based
# Culex quinquefasciatus = assay: Insecticidal in Culex quinquefasciatus assessed as mortality rate membrane-fed with compound treated human blood at 10 to 100 microg/mL observed within 7 days relative to control; type: functional, organism-based; conditions: dose 10-100 µg/ml, time 7.0 day
# Anopheles sp. [3] = assay: Insecticidal in Anopheles sp. assessed as percentage survival fed with blood of compound treated human at 250 microg/kg administered once and observed for 3 days relative to control; type: functional, organism-based; conditions: dose 250.0 µg/kg, time 3.0 day
# Anopheles sp. [4] = assay: Insecticidal in Anopheles sp. assessed as mortality rate fed with blood of compound treated human at 200 microg/kg administered once caught on day 1 after mass drug administration observed within 5 days relative to control; type: functional, organism-based; conditions: dose 200.0 µg/kg, time 5.0 day
# Anopheles gambiae [5] = assay: Insecticidal in Anopheles gambiae G3 assessed as reduction in survivorship fed with blood of compound treated human at 150 microg/kg administered once; type: functional, organism-based; conditions: dose 150.0 µg/kg
# Anopheles gambiae [6] = assay: Insecticidal in Anopheles gambiae assessed as median lethal concentration fed with compound treated bovine blood observed after 9 days; type: functional, organism-based; conditions: time 9.0 day
# Anopheles sp. [7] = assay: Insecticidal in Anopheles sp. assessed as lethal concentration membrane-fed with compound treated blood observed after 4 days; type: functional, organism-based; conditions: time 4.0 day
# Plasmodium vivax [8] = assay: Antimalarial activity against Plasmodium vivax assessed as sporogony lethality in Anopheles darlingi mosquito fed with blood isolated from compound treated parasite-infected human observed after 7 days by measuring reduction in parasite prevalence level at Lc50 relative to control; type: functional, organism-based; parameters: scale not given: the % may be the effect or the level left; conditions: time 7.0 day
# Plasmodium vivax [9] = assay: Antimalarial activity against Plasmodium vivax assessed as reduction in infection in Anopheles sp. mosquito midgut fed with blood isolated from compound treated parasite-infected human at 40 ng/ml observed after 7 days relative to control; type: functional, organism-based; conditions: time 7.0 day
# Anopheles darlingi = assay: Insecticidal in Anopheles darlingi infected with Plasmodium vivax assessed as mortality rate midgut fed with blood isolated from compound treated parasite-infected human observed after 7 days relative to control; type: functional, organism-based; conditions: time 7.0 day
# Anopheles sp. [10] = assay: In vivo Insecticidal in Anopheles sp. assessed as lethality membrane-fed with compound treated human blood at 400 microg/kg per day in presence of combination of 120 mg dihydroartemisinin, 960 mg piperaquine and 30 mg primaquine observed after 7 days; type: functional, organism-based; conditions: dose 400.0 µg/kg, time 7.0 day
# Anopheles gambiae [11] = assay: Insecticidal in Anopheles gambiae assessed as probability of survival per day fed with blood of compound treated human at 150 microg/kg observed for 6 days relative to control; type: functional, organism-based; conditions: dose 150.0 µg/kg, time 6.0 day
# Anopheles sp. [12] = assay: Insecticidal in Anopheles sp. assessed as mortality rate fed with blood of compound treated human at 250 microg/kg administered once and observed for 3 days relative to control; type: functional, organism-based; conditions: dose 250.0 µg/kg, time 3.0 day
# Anopheles sp. [13] = assay: Insecticidal in Anopheles sp. assessed as mortality rate fed with compound treated human blood at 400 microg/kg observed in 48 hrs relative to control; type: functional, organism-based; conditions: dose 400.0 µg/kg
# Anopheles sp. [14] = assay: Insecticidal in Anopheles sp. assessed as mortality rate fed with blood of compound treated human at 200 microg/kg administered once caught on day 3 after mass drug administration observed within 5 days relative to control; type: functional, organism-based; conditions: dose 200.0 µg/kg, time 5.0 day
# Anopheles sp. [15] = assay: In vitro Insecticidal in Anopheles sp. assessed as lethality membrane-fed with compound treated human blood at 400 microg/kg per day in presence of combination of 120 mg dihydroartemisinin, 960 mg piperaquine and 30 mg primaquine observed after 7 days; type: functional, organism-based; conditions: dose 400.0 µg/kg, time 7.0 day
# Anopheles minimus = assay: Insecticidal in Anopheles minimus assessed as lethal concentration membrane-fed with compound treated human blood at 200 microg/kg observed for 7 days; type: functional, organism-based; conditions: dose 200.0 µg/kg, time 7.0 day
# Anopheles sp. [16] = assay: Insecticidal in Anopheles sp. infected with Plasmodium falciparum gametocytes assessed as mortality fed with compound treated bovine blood at 200 microg/kg observed within 4 days feeding at 7 days post treatment relative to control; type: functional, organism-based; conditions: dose 200.0 µg/kg, time 4.0 day
# Anopheles sp. [17] = assay: Insecticidal in Anopheles sp. assessed as mortality fed with treated bovine blood containing 1% of compound observed within 4 days after a blood meal on 2 days post treatment relative to control; type: functional, organism-based; conditions: time 4.0 day
# Anopheles sp. [18] = assay: Insecticidal in Anopheles sp. assessed as mortality fed with treated bovine blood containing 1% of compound observed within 4 days after a blood meal on 7 days post treatment relative to control; type: functional, organism-based; conditions: time 4.0 day
# Anopheles arabiensis [19] = assay: Insecticidal in Anopheles arabiensis assessed as percentage of mortality in 10 day survivorship fed with compound treated bovine blood at 73 mg observed for 24 weeks relative to control; type: functional, organism-based
# Anopheles sp. [20] = assay: Insecticidal in Anopheles sp. infected with Plasmodium falciparum gametocytes assessed as reduction in survival fed with compound treated bovine blood at 200 microg/kg feeding at 7 days after injection relative to control; type: functional, organism-based; conditions: dose 200.0 µg/kg
# Anopheles sp. [21] = assay: Insecticidal in Anopheles sp. infected with Plasmodium falciparum gametocytes assessed as reduction in survival fed with compound treated bovine blood at 200 microg/kg feeding at 15 days after injection relative to control; type: functional, organism-based; conditions: dose 200.0 µg/kg
# Anopheles sp. [22] = assay: Insecticidal in Anopheles sp. infected with Plasmodium falciparum gametocytes assessed as survival fed with compound treated bovine blood at 200 microg/kg feeding at 2 weeks after injection; type: functional, organism-based; conditions: dose 200.0 µg/kg
# Anopheles sp. [23] = assay: Insecticidal in Anopheles sp. infected with Plasmodium falciparum gametocytes assessed as reduction in fecundity fed with compound treated bovine blood at 200 microg/kg feeding at 28 days after injection relative to control; type: functional, organism-based; parameters: scale not given: the % may be the effect or the level left; conditions: dose 200.0 µg/kg
# Anopheles sp. [24] = assay: Insecticidal in Anopheles sp. assessed as mean plasma concentration causing death within 2-4 days fed with compound treated pig blood administered as a single dose at 600 microg/kg at 1 day post treatment observed within 2 to 4 days; type: functional, organism-based; conditions: dose 600.0 µg/kg, time 2-4 day, pooled result: one value given for 4 cell lines, strains, targets or settings
# Anopheles sp. [25] = assay: Insecticidal in Anopheles sp. assessed as egg hatching rate fed with compound treated human blood administered as a single dose at 10 microg/ml fed at 4 hrs post treatment; type: functional, organism-based; conditions: dose 10.0 µg/ml
# Anopheles arabiensis [26] = assay: Insecticidal in Anopheles arabiensis assessed as mortality observed within 48 hrs after ingestion relative to control; type: functional, organism-based
# Anopheles sp. [27] = assay: Insecticidal in Anopheles sp. assessed as mortality relative to control; type: functional, organism-based
# Anopheles gambiae [28] = assay: Insecticidal in Anopheles gambiae assessed as lethal concentration membrane-fed with compound treated human blood at 200 microg/kg observed after 48 to 72 hrs; type: functional, organism-based; conditions: dose 200.0 µg/kg, time 48-72 hrs
# Anopheles gambiae [29] = assay: Insecticidal in Anopheles gambiae assessed as mortality fed with compound treated pig plasma at 20 ng/mL observed for 10 days relative to control; type: functional, organism-based; conditions: time 10.0 day
# Anopheles gambiae [30] = assay: Insecticidal in Anopheles gambiae assessed as mortality fed with compound treated bovine blood at 6 ng/mL observed for 10 days relative to control; type: functional, organism-based; conditions: time 10.0 day
# Anopheles arabiensis [31] = assay: Insecticidal in Anopheles arabiensis assessed as reduction in survival rate fed with blood of compound treated human observed for […] relative to control; type: functional, organism-based
sequence,measurement,setting,value
IVERMECTIN,LC50,Anopheles stephensi,5.85 ppb
same,mortality,Anopheles sp. [1],90%
same,MLC,Aedes aegypti,2.5 ppm
same,MLC,Anopheles sp. [2],50 ppm
same,mortality,Culex quinquefasciatus,100%
same,Survival,Anopheles sp. [3],20%
same,mortality,Anopheles sp. [4],75%
same,LC50,Anopheles gambiae [5],0.0224 µg/mL
same,LC50,Anopheles gambiae [6],19.8 ppb
same,LC50,Anopheles sp. [7],1.47 µg/mL
same,Activity,Plasmodium vivax [8],22.6% and 17.1%
same,inhibition,Plasmodium vivax [9],61.3%
same,mortality,Anopheles darlingi,97.1%
same,LC50,Anopheles sp. [10],2.86 ng/mL
same,Survival,Anopheles gambiae [11],> 10%
same,mortality,Anopheles sp. [12],80%
same,mortality,Anopheles sp. [13],69%
same,mortality,Anopheles sp. [14],68%
same,LC50,Anopheles sp. [15],0.0576 µg/mL
same,LC50,Anopheles minimus,0.0264 µg/mL
same,mortality,Anopheles sp. [16],100%
same,mortality,Anopheles sp. [17],60%
same,mortality,Anopheles sp. [18],80%
same,mortality,Anopheles arabiensis [19],90%
same,Survival,Anopheles sp. [20],83%
same,Survival,Anopheles sp. [21],77%
same,Survival,Anopheles sp. [22],2 days
same,Activity,Anopheles sp. [23],20%
same,Cp,Anopheles sp. [24],15.3 ng/mL
same,Activity,Anopheles sp. [25],74.8
same,mortality,Anopheles arabiensis [26],95%
same,mortality,Anopheles sp. [27],90%
same,LC50,Anopheles gambiae [28],10 ng/mL and 7 ng/mL
same,mortality,Anopheles gambiae [29],50%
same,mortality,Anopheles gambiae [30],50%
same,Survival,Anopheles arabiensis [31],50%
